# In patent publication US20220104468A1, “MODULATION OF LC3-ASSOCIATED ENDOCYTOSIS PATHWAY AND GENETICALLY MODIFIED NON-HUMAN ANIMALS AS A MODEL OF NEUROINFLAMMATION AND NEURODEGENERATION” (St. Jude Children's Research Hospital, priority 2019, published 2022):
# Legend:
# Atg16L^ΔWD mice [1] = experiment: Brain pathology by immunofluorescence/TUNEL after 8 weeks of MCC950 in mice with established disease; assay type: in vivo, mouse; conditions: MCC950 10 mg/kg i.p. every 3 days for 8 weeks
# Procedure: Inflammasome inhibition has recently been proposed as putative therapeutic approach that reduces neuroinflammation and Tau phosphorylation (PMID: 31748742). Thus, Atg16L WD-domain deficient mice (Atg16L^ΔWD mice) with established disease (starting at 20 months of age) and behavioral impairment, as measured by both impaired spontaneous alternation and NOR (FIGS. 19A-19B), were treated with the brain-penetrant inflammasome inhibitor MCC950. […] However, no difference in Aβ deposition was observed between placebo and MCC950-treated mice (FIG. 19E).
# Atg16^ΔWD mice were generated by deletion of the WD-domain of Atg16L, as previously described (Rai et al 2018(online) Autophagy 15(4)599-612). In brief, 2 stop codons were inserted into exon 6 of murine Atg16L1 immediately after glutamate E230 to preserve binding sites for WIPI2 (required for canonical autophagy) but prevent translation of the linker and WD-domain. Mice were produced and maintained on a mixed 129, C57BL/6 background. Unless otherwise noted, all experiments were performed on mixed sex cohorts at 2 years of age. Mice treated with MCC950 or placebo were mixed sex cohorts, 20 months of age at time of treatment onset and were treated for 8-weeks. The genetic backgrounds of mice used were assessed at the DartMouse™ Speed Congenic Core Facility at the Geisel School of Medicine at Dartmouth. DartMouse uses the Illumina, Inc. (San Diego, Calif.) Infinium Genotyping Assay to interrogate a custom panel of 5307 SNPs spread throughout the genome. The raw SNP data was analyzed using DartMouse's SNaP-Map™ and Map-Synth™ software, allowing the determination for each mouse of the genetic background at each SNP location. Background strain percentage was subsequently compared against markers of disease pathology to evaluate any influence stemming from variations in background (FIG. 18).
# For preparation of brain tissue see “Preparation of brain samples” below. Slides were subjected to antigen retrieval using 1% sodium citrate boiling for 20 min followed by 3× PBS washing. Slides were blocked in 0.5% BSA in PBS. Antibody staining was carried out as described above. Following final washing, slides were mounted using ProLong Diamond Anti-Fade mounting media with DAPI.
# Image analysis for relative Aβ, Iba1, and phospho-Tau staining was achieved by quantifying the mean fluorescent intensity (MFI) of either Iba1 or phospho-Tau signal using NIS-elements. Analysis and quantification of microglial morphology was achieved using Slidebook 6 software. Morphological state was determined by measuring cell diameter following 3D reconstruction and confirmed by manual counting/analysis of microglia shape per defined field across multiple areas of each slide. […]
# Atg16L^ΔWD mice [2] = experiment: Y-maze spontaneous alternation after MCC950 treatment; assay type: in vivo, mouse; conditions: MCC950 8 weeks, trending towards wild-type littermates
# Procedure: For Y-maze spontaneous alternation analysis, mice were housed in the testing room and allowed to acclimate for 48h. The Y-maze test consisted of a single 5 min trial per mouse. Spontaneous Alternation [%] was defined as consecutive entries in 3 different arms (ABC), divided by the number of possible alternations (total arm entries minus 2). Mice with less than 5 arm entries during the 5 min trial were excluded from the analysis.
# (§1) Mice with established disease were treated for 8-weeks with either a vehicle (placebo) control or MCC950 (Invivogen) as reported previously (Gordon et al. 2018 Science Translational Medicine 10(465)). In brief, MCC950 was suspended in 100% DMSO and titrated to a working dose using sterile water. The final concentration of DMSO in the injection was <1%. Matching solution without MCC950 was used as the vehicle (placebo). Mice were injected every 3 days for 8-weeks at a dose of 10 mg/kg via intraperitoneal injection.
# Atg16L^ΔWD mice [3] = experiment: Novel object recognition (NOR) after MCC950 treatment; assay type: in vivo, mouse; conditions: MCC950 8 weeks, trending towards wild-type littermates
# Procedure: Novel object recognition (NOR) was performed in an open-field box (40 cm×40 cm). Mice were allowed to acclimate to the testing room for 48h. For habituation, mice were allowed to explore the open-field for 15 min per day for two days. Mice were then exposed to two identical objects for 10 min on the day of testing. 2h later a novel object was introduced, and mice were allowed to explore for 5 min during the test phase. The time spent exploring each object was quantified manually. Novel object preference (%) and the discrimination index ((time with novel)/(novel+familiar)*100) were calculated for each mouse.
# as §1
# BV2 microglia [4] = experiment: Phagocytosis versus endocytosis substrate uptake with latrunculin A (flow cytometry, imaging); assay type: cell-based, murine; conditions: 50 μM latrunculin A
# Procedure: (§2) In an attempt to delineate the discrepancies in β-amyloid accumulation in the animal models presented above and the role of the autophagy proteins in this process, BV2 murine microglial cells expressing GFP-LC3 that are deficient in FIP200, ATG5, or Rubicon were engineered using CRISPR/Cas9 (FIG. 3A). Cells were cultured in the presence of neurotoxic oligomeric AP 1-42 labeled with TAMRA.
# For all uptake assays, cells were analyzed without fixation. For membrane-associated GFP-LC3 analysis, cells were processed as described below. For brain infiltrating monocytes, cells were isolated as described using the Neural Tissue Dissociation Kit (Miltenyi). Primary cells were fixed, permeabilized, and stained using the Cyto Fix/Perm Staining Kit (BD Bioscience) and the indicated, conjugated primary antibodies. For all experiments, cells were analyzed using a Sony SP6800 Spectral Analyzer (Sony). All analyses were performed using FlowJo v10.4 (Tree Star). Fluorescent compensation was performed using BD compensation beads (BD Bioscience).
# (§3) To delineate between phagocytosis and endocytosis, cells were treated as indicated with the phagocytic inhibitor latrunculin A. Cells were pre-treated for 1 h prior to the addition of target substrates. The following control substrates were used, zymosan (phagocytosis) and dextran (endocytosis), both were fluorescently labeled as indicated. Co-incubation with specific substrates was carried out at 37° C. for 3h. Cells were either fixed for imaging or analyzed by flow cytometry as described above respectively.
# BV2 microglia [5] = experiment: Membrane-associated GFP-LC3 by flow cytometry; assay type: cell-based, murine; conditions: parental BV2 microglia, latrunculin A versus vehicle
# Procedure: as §2
# To quantify membrane association of GFP-LC3, cells were harvested and permeabilized using 200 μg/ml digitonin for 15 min on ice. Cytosolic GFP-LC3 was removed by washing cells 5× in cold PBS. Cells were then resuspended in 0.5% BSA in PBS for analysis by flow cytometry as described above.
# as §3
# [6] = system: BV2 murine microglial cells expressing GFP-LC3; experiment: LC3 recruitment/co-localization to β-amyloid in GFP-LC3 BV2 cells (imaging); assay type: cell-based; conditions: parental BV2 GFP-LC3 cells, TAMRA-labeled oligomeric peptide
# Procedure: as §2
# (§4) Both labeled and unlabeled Ab1-42 was purchased in lyophilized form and resuspended according to the manufacturer's recommendation at a concentration of 100 μM (Anaspec). In brief, Ab1-42 was resuspended to 5 mM in DMSO and then adjusted to 100 μM using DMEM/F12 culture media. Oligomerization was allowed to occur for 24h at 4° C. prior to addition to cells at 1 μM unless otherwise indicated.
# For all non-live cell-based imaging, cells were cultured in 4-well chamber slides (Ibidi) and were fixed and stained as indicated. In brief, cells were fixed with 4% PFA for 10 min followed by permeabilization using 200 μg/ml digitonin for 10 min. Cells were blocked in 0.5% BSA in PBS for 30 min prior to staining with primary antibodies overnight at 4° C. Cells were then washed 3× in PBS and then stained with the indicated fluorescent secondary antibodies for 30 min. Cells were subsequently washed 3× with PBS and post-fixed in 1% PFA for 10 min prior to imaging. […]
# BV2 cells = experiment: Pro-inflammatory gene expression by qPCR after oligomeric Aβ1-42; assay type: cell-based, murine; conditions: BV2 cells treated with Aβ1-42
# Procedure: Similarly, the effects of Aβ1-42 on microglia were examined. As expected, BV2 cells treated with Aβ1-42 had elevated pro-inflammatory gene expression, including IL-1β, IL-6, CCL5, and TNFα as reported (Pan et al. (2011) Mol Neurodegener 6:45) and consistent with human disease.
# as §4
# Total RNA was isolated from cells or tissue using the RNeasy Kit (Qiagen) according to the manufacturer's instructions. First-strand synthesis was performed using M-MLV reverse transcriptase (Invitrogen). Realtime PCR was performed using SYBR GREEN PCR master mix (Applied Biosystems) in an Applied Biosystems 7900HT thermocycler using SyBr Green detection protocol as outlined by the manufacturer using the following PCR conditions: 50° C. for 2 min, 95° C. for 10 min, and 40 cycles of 95° C. for 15s and 60° C. for 1 min. mRNA was normalized to actin allowing for comparison of mRNA levels. Please see key reagents table for qPCR primer sequences.
compound,measurement,setting,value
CC(C)(O)c1coc(S(=O)(=O)NC(=O)Nc2c3c(cc4c2CCC4)CCC3)c1 [MCC950],"microglial activation (Iba1 staining, hippocampus)","Atg16L^ΔWD mice [1]; 20 months at onset, compared to placebo",reduced
same,Aβ deposition (hippocampus),Atg16L^ΔWD mice [1]; versus placebo,no difference
same,"Tau phosphorylation (S199/202, CA3-field)",Atg16L^ΔWD mice [1]; versus placebo,massive reduction
same,neurodegeneration as measured by TUNEL staining (CA3-field),Atg16L^ΔWD mice [1]; versus placebo,massive reduction
same,behavioral and memory capacity in the Y-maze (spontaneous alternation),Atg16L^ΔWD mice [2],restoration
same,"behavioral and memory capacity in NOR (novel object preference, discrimination index)",Atg16L^ΔWD mice [3],restoration
C/C1=C/C(=O)O[C@@H]2C[C@@H](CC[C@H](C)/C=C\C=C\CC1)O[C@@](O)([C@@H]1CSC(=O)N1)C2 [latrunculin A],uptake of the endocytic substrate dextran,BV2 microglia [4]; dextran 500 ng/ml,had no effect
same,internalization of the phagocytic substrate zymosan,BV2 microglia [4]; zymosan 4:1 particle:cell,prevented the internalization
same,uptake of β-amyloid,BV2 microglia [4]; β-amyloid 1 μM,had no effect
same,association of LC3 to endosomal membranes in response to β-amyloid,BV2 microglia [5],did not alter
"Aβ1-42: neurotoxic oligomeric β-amyloid 1-42 peptide, labeled or unlabeled (Anaspec)",co-localization/recruitment of LC3 to the β-amyloid,[6],induced rapid co-localization
same,"pro-inflammatory gene expression, including IL-1β, IL-6, CCL5, and TNFα",BV2 cells,elevated
